From US20180064811A1, “PHARMACEUTICAL COMBINATIONS COMPRISING CD33 ANTIBODIES AND DE-METHYLATING AGENTS” (Boehringer Ingelheim International GmbH, priority 2013, published 2018)

Tested on: HL60 cells
Assay: ADCC (LDH release) of CD33 antibody CD33-1 with PBMC effector cells pre-treated with de-methylating agents
Type: cell-based, human
Conditions: for Relative Cytolysis (%): ADCC of CD33-1 on HL60 target cells, human PBMC effector cells pre-treated with 100 nM de-methylating agent for 3 to 6 days, E:T 25:1, relative to untreated PBMC (100), 3 independent assays; for impact on ADCC of mAb 33-1: effector cells (PBMC) treated with 100 nM for 3 to 6 days, compared with untreated effector cells
Experimental: The ability CD33 antibodies to mediate antibody-dependent cell-mediated cytotoxicity (ADCC) in the presence of effector cells pre-treated with demethylating agents is assessed using HL60 cells as target cells and human PBMCs as effector cells.
Preparation of target cells (HL-60 acute myeloid leukemia, DSMZ #ACC3)
An aliquot of the cell culture at a cell density between 1.5×10^6/m1 and 1.8×10^6/m1 and growing in the log-phase is centrifuged (200×g, i.e. 1000 rpm) for 10 min. Cells are washed once with washing medium (RPMI 1640 w/o L-glutamine) and pelleted (200×g, i.e. 1000 rpm; 10 min). Cell pellet is suspended in assay medium (1% BSA; AlbuMAX II (Gibco 11021-037)) and cell count is determined. Cell concentration is adjusted to 2×10^5/ml.
Approximately 100 ml whole blood drawn from healthy donors is used for the isolation of PBMC. 10 ml whole blood are diluted 1:3.6 with 26 ml HBSS (Gibco 14170-088; Paisley, Scotland) in a 50 ml tube. 18 ml diluted whole blood is layered on top of 12 ml Lymphoprep (Nycomed Pharma AS 1053980) in a 50 ml tube and centrifuged at 370×g (1400 rpm) for 35 min. The mononuclear cells from the interface are aspirated and washed first with HBSS (750×g, i.e. 1900 rpm; 10 min), then a second time with HBSS (300×g, i.e. 1200 rpm; 10 min) and finally with HBSS (160×g, i.e. 900 rpm; 10 min). The pelleted cells are gently suspended in culture medium/assay medium (10% heat-inactivated human AB serum in RPMI 1640 w/o L-glutamine) using a pipette and the cell count is determined in the cell counter. The PBMC concentration is adjusted to 1×10^7/ml.
The freshly isolated PBMC (5×10^5/m1) are pre-treated with de-methylating agents in culture medium (RPMI 1640 w/o L-glutamine supplemented with 10% human AB serum and decitabine or 5-azacytidine at a final concentration of 100 nM) in a tissue culture flask (75 cm^2) at 37° C. in CO2 incubator for 3 to 6 days. De-methylating agent treated PBMC are separated from cell debris on a Lymphoprep gradient. The purified de-methylating agent treated PBMC are suspended in culture medium/assay medium ata concentration of 1×10^7/ml.
For all tested cell lines an E:T ratio of 25:1 is used. The co-cultivation of effector cells with target cells in presence of test antibody is performed in quadruplicates in 96-well round-bottom microtiter plates (Costar #3799) in a final volume of 200 μl assay medium per well consisting of 10% human AB serum and 1% BSA in RPMI in 1:1 ratio. In each experimental run two plates are assayed in parallel. First effector cells (PBMC cells in 100 μl 10% human AB serum in RPMI per well) are plated, followed by target cells (in 50 μl 1% BSA in RPMI per well) and antibody solution (candidate antibody diluted in 50 μl 1% BSA in RPMI). As a control, effector cells are cultivated in assay medium alone (effector cell control) and target cells are cultivated either in assay medium alone (spontaneous lysis) or in assay medium supplemented with 1% Triton X-100 (maximal lysis). The co-culture is incubated at 37° C. in a humid CO^2 incubator for 3 to 4 hours.
At the end of the incubation cells are removed from the culture medium by centrifugation (200×g, i.e. 1000 rpm; 10 min) at room temperature. Cell free supernatants (100 μl/well) are transferred into corresponding wells of a 96-well flat-bottom plate (Costar #3595). To determine the LDH activity in these supernatants 100 μl reaction mixture (freshly mixed 250 μl catalyst with 11.25 ml dye solution) are added to each well and incubated 30 min at room temperature in the dark. Then the absorbance is measured as described below.
Cytotoxicity Detection Kit (LDH Roche #11 644 793 001) is used to determine ADCC activity. The assay is based on the measurement of LDH enzyme activity released from plasma membrane-damaged cells. LDH released into the culture supernatants reduces the tetrazolium salt from the kit to formazan. […]

SMILES	Relative Cytolysis (%)	Relative Cytolysis (%) (listed as decitabine)	impact on ADCC of mAb 33-1	Relative Cytolysis (%) (listed as 5-azacytidine)
Nc1ncn([C@H]2C[C@H](O)[C@@H](CO)O2)c(=O)n1 [Decitabine, 4-Amino-1-(2-deoxy-β-D-erythro-pentofuranosyl)-1,3,5-triazin-2(1H)-one]	98%	107%	did not significantly impact	
Nc1ncn([C@@H]2O[C@H](CO)[C@@H](O)[C@H]2O)c(=O)n1 [5-Azacitidine, 4-amino-1-β-D-ribofuranosyl-1,3,5-triazin-2(1H)-one]	107%		did not significantly impact	98%
